Test results: ChEMBL document CHEMBL4804286, “3-amino-4-(4-(4 (dimethylcarbamoyl) phenyl)-1,4-diazepan-1-yl) thieno [2,3-b] pyridine-2-carboxamide for use in cancer therapy and formulations comprising the same” (2020)
Values belong to the compound of their own block, whether it stands above or below them. The source made the active and inactive calls. No cut-off for these calls is given here.

Experiments:
[1] = target: Cyclin-dependent kinase 8/19 (Homo sapiens, UniProt P49336+Q9BWU1); details: ST-2
Description: Inhibition of CDK8/CDK19 in ST2 cells by alkaline phosphatase activity assay

[2] = system: 4T1; test: Antitumor activity against murine 4T1 cells xenografted in mouse assessed as suppression of tumor volume at 50 mg/kg, po; assay type: functional, organism-based
[3] = system: CWR22R; test: Antitumor activity against human 22Rv1 cells expressing AR-V7 xenografted in male nude mouse assessed as suppression of tumor growth at 66 mg/kg, administered twice a day for 20 days; assay type: functional, organism-based
[4] = system: CWR22R; test: Antitumor activity against human 22Rv1 cells expressing AR-V7 xenografted in male nude mouse assessed as suppression of tumor growth at 133 mg/kg, administered once a day for 20 days; assay type: functional, organism-based
[5] = system: Myc-CaP; test: Antiproliferative activity against murine castration-resistant Myc-CaP cells at 1 uM assessed as growth inhibition in presence of 5 uM enzalutamide relative to control; assay type: functional; details: Mus musculus
[6] = system: Myc-CaP; test: Antiproliferative activity against murine castration-resistant Myc-CaP cells at 1 uM assessed as growth inhibition relative to control; assay type: functional; details: Mus musculus
[7] = system: Myc-CaP; test: Inhibition of colony formation in murine castration-resistant Myc-CaP cells at 1 uM in presence of 5 uM enzalutamide by clonogenic assay relative to control; assay type: functional; details: Mus musculus
[8] = system: Myc-CaP; test: Inhibition of colony formation in murine castration-resistant Myc-CaP cells at 1 uM by clonogenic assay; assay type: functional; details: Mus musculus

Chain of Cyclin-dependent kinase 8/19 (P49336 whole entry, looked up): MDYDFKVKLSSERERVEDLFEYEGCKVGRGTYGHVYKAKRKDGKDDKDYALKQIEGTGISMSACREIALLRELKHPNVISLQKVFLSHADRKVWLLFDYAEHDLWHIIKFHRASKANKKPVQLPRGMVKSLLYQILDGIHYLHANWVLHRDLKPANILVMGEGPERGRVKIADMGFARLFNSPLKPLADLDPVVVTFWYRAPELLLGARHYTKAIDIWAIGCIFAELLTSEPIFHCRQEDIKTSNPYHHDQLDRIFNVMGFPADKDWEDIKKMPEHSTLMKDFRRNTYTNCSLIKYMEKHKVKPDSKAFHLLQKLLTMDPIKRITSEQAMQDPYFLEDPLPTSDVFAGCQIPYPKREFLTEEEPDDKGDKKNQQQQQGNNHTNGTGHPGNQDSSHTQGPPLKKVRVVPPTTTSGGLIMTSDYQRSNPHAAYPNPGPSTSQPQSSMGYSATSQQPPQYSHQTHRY
Chain of Cyclin-dependent kinase 8/19 (Q9BWU1 whole entry, looked up): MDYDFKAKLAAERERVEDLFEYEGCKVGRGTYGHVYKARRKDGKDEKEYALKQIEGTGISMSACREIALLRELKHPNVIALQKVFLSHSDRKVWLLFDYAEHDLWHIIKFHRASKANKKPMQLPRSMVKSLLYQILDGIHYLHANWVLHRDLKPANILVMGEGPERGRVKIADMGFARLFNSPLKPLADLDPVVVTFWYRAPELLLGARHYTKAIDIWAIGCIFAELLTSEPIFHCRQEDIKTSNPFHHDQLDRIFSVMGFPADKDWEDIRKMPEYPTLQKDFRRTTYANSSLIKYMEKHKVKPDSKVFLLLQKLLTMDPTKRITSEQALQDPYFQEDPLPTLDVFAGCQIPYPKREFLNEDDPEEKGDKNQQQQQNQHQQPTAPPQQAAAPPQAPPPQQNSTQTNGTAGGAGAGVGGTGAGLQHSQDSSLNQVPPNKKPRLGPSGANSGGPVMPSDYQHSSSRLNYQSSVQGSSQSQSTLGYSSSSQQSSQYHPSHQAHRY

SMILES: CN(C)C(=O)Cc1ccc(N2CCCN(c3ccnc4sc(C(N)=O)c(N)c34)CC2)cc1
EC200 [1]: 6.6 nM

SMILES: COc1ccc(N2CCCN(c3ccnc4sc(C(N)=O)c(N)c34)CC2)cc1
EC200 [1]: 115 nM

SMILES: CN1CCN(C(=O)c2ccc3cc(CCNc4ncnc5ccc(C#N)cc45)ccc3c2)CC1 [SENEXIN B]
Activity [2]: Active
Activity [3]: Active
Activity [4]: Active
Activity [5]: Active
Activity [6]: Active
inhibition [7]: Active
inhibition [8]: Active

Next, values leading:

EC200 [1]: 88.1 nM
SMILES: Cc1ccc(N2CCCN(c3ccnc4sc(C(N)=O)c(N)c34)CC2)cc1

EC200 [1]: 54.2 nM
SMILES: CNC(=O)c1ccc(N2CCCN(c3ccnc4sc(C(N)=O)c(N)c34)CC2)cc1
